Paper PMC8231113, “Protein Secondary Structure Affects Glycan Clustering in Native Mass Spectrometry” (Life, 2021)
Read-outs that look alike come from different tables or passages of the source.

Experiments:
[1] = molecular target: T1, myoglobin from equine heart (Myo) (Equus caballus, UniProt P68082); experiment: Native MS glycan clustering to reference protein Myo; format: binding; conditions: on Myo
T1 construct: myoglobin from equine heart (Myo, CAS number 100684-32-0); purchased Sigma-Aldrich (Merck, Germany); host or cells: equine heart
T1 sequence (P68082 whole entry): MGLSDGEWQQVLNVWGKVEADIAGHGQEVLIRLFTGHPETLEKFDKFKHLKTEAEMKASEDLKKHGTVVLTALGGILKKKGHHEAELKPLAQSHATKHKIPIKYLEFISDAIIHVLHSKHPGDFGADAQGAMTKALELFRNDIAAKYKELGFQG
Method: (§1) Prior to MS analysis, purified P dimers were buffer exchanged to 150 mM ammonium acetate (Sigma-Aldrich, reagent grade ≥98%) at pH 7 via centrifugal filter units at 12,000× g at 4 °C (Vivaspin 500, MWCO 10000, Sartorius). Glycans for native MS analysis were mixed with 1 µM (per monomer) purified GII.4 Saga P dimer and 3 µM of the reference proteins at indicated concentrations. Native mass spectra were measured at room temperature in positive ion mode on a high mass modified LCT Premier mass spectrometer (Waters/Micromass, UK and MS Vision, the Netherlands) with a nano-ESI source. In house-made gold-coated electrospray capillaries were used for direct-sample infusion without any accessory chromatographic separation. The voltages and pressures were optimized for non-covalent protein complexes. The gas pressure used in the source hexapole was set between 6.5 and 6.8 × 10^−2 mbar argon optimized for minimal complex dissociation and the backing pressure of the source roughing pump was set between 7.0 and 8.5 mbar. Spectra were recorded with applied voltages for the capillary and cone of 1.20 kV and 240 V, respectively. Note that charge state distributions for P dimers were sometimes slightly shifted as was the degree of glycan clustering per charge state. These changes were highly variable and not quantifiable.
(§2) For calibration of the raw data, a 25 mg/mL cesium iodide spectrum from the same day was used. MassLynx V4.1 (Waters, Manchester, UK) was used to assign peak series to protein species and to determine the mass after minimal smoothing. Furthermore, OriginPro 2016 SR2 (OriginLab, Northampton, MA, USA) was used for spectral deconvolution and curve fitting. Correction for nonspecific protein-ligand clustering was performed as described. Corrected peak areas were averaged and normalized to the free-protein signal. Data were based on at least three independent measurements. Python code Panda and Numpy package were used to calculate the specific binding of P dimers according to the glycan clustering ratio obtained from the selected reference protein candidates. Seaborn and matplotlib.pyplot package were imported into a python script to plot the results. The module of sklearn.linear model was applied for linear regression. The matplotlib and heatmap package were used to plot the heatmap.
(§3) Theoretically, the KD is calculated by measuring the concentration of the three components (Pfree, Lfree, PL) in solution. Usually, these values are only indirectly accessible because they require ligand titration up to binding saturation. However, native MS allows for the directly measurement of Pfree and PL, from which Lfree can be calculated using the input concentrations. In the present work, the non-covalent interaction was measured in the gas phase assuming identical ESI and detection efficiency for free and glycan-associated proteins, both for the analyte and the reference protein. […] For P dimers, the equations reflect glycan binding to the individual monomers assuming that binding sites on each monomer are equal and independent.
(§4) Using R described in Equation (3), the KD calculation can be re-written into Equation (4) with the known initial concentration of glycan ligand [L0] and protein [P0], adapted from Sun et al.:(3) R=PLequil∕Pequil=∑nA(PL^n+)∕n∕∑nA(P^n+)∕n (4) KD =L0−RP0/1+R/R
(§5) For the carbohydrate-binding experiments, it was essential to keep the initial protein concentrations and pH value constant during the analysis of the protein-carbohydrate solutions. While acidification occurs in any ESI droplet, the remaining solution in the capillary changes pH over time. Therefore, accumulated spectra were obtained within 10 min after the voltages were applied to minimize the influence of pH changes during the measurements. […]

[2] = molecular target: T2, cytochrome c from equine heart (cyt c) (Equus caballus, UniProt P00004); experiment: Native MS glycan clustering to reference protein cyt c; format: binding; conditions: on Cyt c
T2 construct: cytochrome c from equine heart (cyt c, CAS number 9007-43-6); purchased Sigma-Aldrich (Merck, Germany); host or cells: equine heart
T2 sequence (P00004 whole entry): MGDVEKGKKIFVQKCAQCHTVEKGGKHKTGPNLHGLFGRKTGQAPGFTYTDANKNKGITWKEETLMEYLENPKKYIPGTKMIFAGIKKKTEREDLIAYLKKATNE
Method: as §1, §2, §3, §4, §5

[3] = molecular target: T3, ubiquitin from bovine erythrocytes (Ubq) (Bos taurus, UniProt P0CG53); experiment: Native MS glycan clustering to reference protein Ubq; format: binding; conditions: on Ubq
T3 construct: ubiquitin from bovine erythrocytes (Ubq, CAS number 75986-22-4); purchased Sigma-Aldrich (Merck, Germany); host or cells: bovine erythrocytes
Method: as §1, §2, §3, §4, §5

GII.4 Saga P dimer = GII.4 Saga P dimer (Norovirus GII.4 (human norovirus), UniProt B5BTR7); experiment: Native MS, specific glycan binding to P dimer after reference protein correction; parameters: species or system human norovirus (hNoV); conditions: for Kd: read-out: KD for HBGA B
Method: as §1, §2
Data from native ESI MS measurements were translated into dissociation constants (KD values). The detailed calculations were based on the equations listed below. A protein (P) and a glycan ligand (L) form a complex through non-covalent interactions leading to a reversible association described by (Equation (1)):(1) P+L⇌PL when equilibrium is reached, the KD can be calculated directly from the concentrations via the law of mass action (Equation (2)):(2) KD=[Pfree][Lfree]/[PL]
as §3
Using R described in Equation (3), the KD calculation can be re-written into Equation (4) with the known initial concentration of glycan ligand [L0] and protein [P0], adapted from Sun et al.:(3) R=PLequil∕Pequil=∑nA(PL^n+)∕n∕∑nA(P^n+)∕n (4) KD =L0−RP0/1+R/R […]

## CC(=O)N[C@H]1C(O)O[C@H](CO)[C@@H](O)[C@@H]1O[C@@H]1O[C@H](CO)[C@H](O)[C@H](O[C@H]2O[C@H](CO)[C@H](O)[C@H](O)[C@H]2O)[C@H]1O[C@@H]1O[C@@H](C)[C@@H](O)[C@@H](O)[C@@H]1O (some centres unmarked) [HBGA B, Galα1-3(Fucα1-2)Galβ1-3GlcNAc]
[1]; 100 µM glycan
  Glycan-Clustering Ratio R: 0.14±0.03
[1]; 200 µM glycan
  Glycan-Clustering Ratio R: 0.18±0.02
[1]; 300 µM glycan
  Glycan-Clustering Ratio R: 0.19±0.06
[1]; 400 µM glycan
  Glycan-Clustering Ratio R: 0.31±0.04
[1]; 500 µM glycan
  Glycan-Clustering Ratio R: 0.36 ± 0.05
[2]; 100 µM glycan
  Glycan-Clustering Ratio R: 0.14±0.01
[2]; 200 µM glycan
  Glycan-Clustering Ratio R: 0.15±0.01
[2]; 300 µM glycan
  Glycan-Clustering Ratio R: 0.19±0.03
[2]; 400 µM glycan
  Glycan-Clustering Ratio R: 0.29±0.02
[2]; 500 µM glycan
  Glycan-Clustering Ratio R: 0.35 ± 0.03
[3]; 100 µM glycan
  Glycan-Clustering Ratio R: 0.04±0.01
[3]; 200 µM glycan
  Glycan-Clustering Ratio R: 0.04±0.01
[3]; 300 µM glycan
  Glycan-Clustering Ratio R: 0.10±0.03
[3]; 400 µM glycan
  Glycan-Clustering Ratio R: 0.18±0.01
[3]; 500 µM glycan
  Glycan-Clustering Ratio R: 0.25 ± 0.00
GII.4 Saga P dimer; Gb4: any listed glycan concentration, HBGA B: 500 µM
  specific binding after ADH based protein clustering correction: a single binding event
GII.4 Saga P dimer; correction with ref. protein ADH
  Kd: 24000 ± 16000 µM
GII.4 Saga P dimer; correction with ref. protein CA
  Kd: 400 ± 100 µM
GII.4 Saga P dimer; correction with ref. protein Cyt c
  Kd: 160 ± 50 µM
GII.4 Saga P dimer; correction with ref. protein GFP
  Kd: 900 ± 350 µM
GII.4 Saga P dimer; correction with ref. protein Myo
  Kd: 250 ± 100 µM
GII.4 Saga P dimer; correction with ref. protein Ubq
  Kd: 200 ± 130 µM
GII.4 Saga P dimer; ref. protein ADH, glycan 100 µM
  Bound number of carbohydrates on Saga P dimer: 0
GII.4 Saga P dimer; ref. protein ADH, glycan 200 µM
  Bound number of carbohydrates on Saga P dimer: 0
GII.4 Saga P dimer; ref. protein ADH, glycan 300 µM
  Bound number of carbohydrates on Saga P dimer: 0
GII.4 Saga P dimer; ref. protein ADH, glycan 400 µM
  Bound number of carbohydrates on Saga P dimer: 0
GII.4 Saga P dimer; ref. protein ADH, glycan 500 µM
  Bound number of carbohydrates on Saga P dimer: 1
GII.4 Saga P dimer; ref. protein CA, glycan 100 µM
  Bound number of carbohydrates on Saga P dimer: 1
GII.4 Saga P dimer; ref. protein CA, glycan 200 µM
  Bound number of carbohydrates on Saga P dimer: 2
GII.4 Saga P dimer; ref. protein CA, glycan 300 µM
  Bound number of carbohydrates on Saga P dimer: 2
GII.4 Saga P dimer; ref. protein CA, glycan 400 µM
  Bound number of carbohydrates on Saga P dimer: 2
GII.4 Saga P dimer; ref. protein CA, glycan 500 µM
  Bound number of carbohydrates on Saga P dimer: 2
GII.4 Saga P dimer; ref. protein Cyto c, glycan 100 µM
  Bound number of carbohydrates on Saga P dimer: 2
GII.4 Saga P dimer; ref. protein Cyto c, glycan 200 µM
  Bound number of carbohydrates on Saga P dimer: 3
GII.4 Saga P dimer; ref. protein Cyto c, glycan 300 µM
  Bound number of carbohydrates on Saga P dimer: 4
GII.4 Saga P dimer; ref. protein Cyto c, glycan 400 µM
  Bound number of carbohydrates on Saga P dimer: 4
GII.4 Saga P dimer; ref. protein Cyto c, glycan 500 µM
  Bound number of carbohydrates on Saga P dimer: 4
GII.4 Saga P dimer; ref. protein GFP, glycan 100 µM
  Bound number of carbohydrates on Saga P dimer: 1
GII.4 Saga P dimer; ref. protein GFP, glycan 200 µM
  Bound number of carbohydrates on Saga P dimer: 1
GII.4 Saga P dimer; ref. protein GFP, glycan 300 µM
  Bound number of carbohydrates on Saga P dimer: 2
GII.4 Saga P dimer; ref. protein GFP, glycan 400 µM
  Bound number of carbohydrates on Saga P dimer: 2
GII.4 Saga P dimer; ref. protein GFP, glycan 500 µM
  Bound number of carbohydrates on Saga P dimer: 2
GII.4 Saga P dimer; ref. protein LDH, glycan 100 µM
  Bound number of carbohydrates on Saga P dimer: 0
GII.4 Saga P dimer; ref. protein LDH, glycan 200 µM
  Bound number of carbohydrates on Saga P dimer: 0
GII.4 Saga P dimer; ref. protein LDH, glycan 300 µM
  Bound number of carbohydrates on Saga P dimer: 0
GII.4 Saga P dimer; ref. protein LDH, glycan 400 µM
  Bound number of carbohydrates on Saga P dimer: 0
GII.4 Saga P dimer; ref. protein LDH, glycan 500 µM
  Bound number of carbohydrates on Saga P dimer: 1
GII.4 Saga P dimer; ref. protein Myo, glycan 100 µM
  Bound number of carbohydrates on Saga P dimer: 2
GII.4 Saga P dimer; ref. protein Myo, glycan 200 µM
  Bound number of carbohydrates on Saga P dimer: 3
GII.4 Saga P dimer; ref. protein Myo, glycan 300 µM
  Bound number of carbohydrates on Saga P dimer: 3
GII.4 Saga P dimer; ref. protein Myo, glycan 400 µM
  Bound number of carbohydrates on Saga P dimer: 3
GII.4 Saga P dimer; ref. protein Myo, glycan 500 µM
  Bound number of carbohydrates on Saga P dimer: 4
GII.4 Saga P dimer; ref. protein Ubq, glycan 100 µM
  Bound number of carbohydrates on Saga P dimer: 2
GII.4 Saga P dimer; ref. protein Ubq, glycan 200 µM
  Bound number of carbohydrates on Saga P dimer: 3
GII.4 Saga P dimer; ref. protein Ubq, glycan 300 µM
  Bound number of carbohydrates on Saga P dimer: 4
GII.4 Saga P dimer; ref. protein Ubq, glycan 400 µM
  Bound number of carbohydrates on Saga P dimer: 4
GII.4 Saga P dimer; ref. protein Ubq, glycan 500 µM
  Bound number of carbohydrates on Saga P dimer: 4
GII.4 Saga P dimer; ref. protein apo-TFF, glycan 100 µM
  Bound number of carbohydrates on Saga P dimer: 1
GII.4 Saga P dimer; ref. protein apo-TFF, glycan 200 µM
  Bound number of carbohydrates on Saga P dimer: 1
GII.4 Saga P dimer; ref. protein apo-TFF, glycan 300 µM
  Bound number of carbohydrates on Saga P dimer: 1
GII.4 Saga P dimer; ref. protein apo-TFF, glycan 400 µM
  Bound number of carbohydrates on Saga P dimer: 1
GII.4 Saga P dimer; ref. protein apo-TFF, glycan 500 µM
  Bound number of carbohydrates on Saga P dimer: 2
